≈ marks a conversion by molar mass, not a printed value. Where “and” joins values, the source holds several entries; their conditions need not be identical. Identical values can stand only once.
Tests used:
[1] = target: T1, Class A beta-lactamase SHV 18 (K. pneumoniae ATCC 700603) (Klebsiella pneumoniae, UniProt P0AD64, E235K/G234A/I4F/R39S); test: Beta-lactamase enzyme inhibition (Nitrocefin, crude enzyme); format: biochemical; conditions: Class A, K. pneumoniae ATCC 700603 (SHV 18); read-out: Beta-lactamase enzyme inhibition IC50
T1 sequence (P0AD64 1-286 I4F/R39S/G234A/E235K): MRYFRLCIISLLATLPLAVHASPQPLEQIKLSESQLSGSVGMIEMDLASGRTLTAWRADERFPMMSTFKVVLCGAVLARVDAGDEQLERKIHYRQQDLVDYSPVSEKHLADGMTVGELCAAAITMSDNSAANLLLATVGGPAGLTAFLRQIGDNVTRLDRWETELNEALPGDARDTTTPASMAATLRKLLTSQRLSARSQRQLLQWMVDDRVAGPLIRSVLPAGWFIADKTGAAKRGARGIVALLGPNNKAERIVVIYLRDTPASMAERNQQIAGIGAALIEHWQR
Description: (§1) Absorbance was measured at 485 nm by UV-spectrophotometer. The IC50 was calculated by plotting absorbance against concentration through Sigmoidal dose response curve using Graph Pad software.
The enzyme inhibition was expressed as IC50.

E. coli M 49 = test: Antibacterial activity (MIC), agar dilution per CLSI; format: cell-based; conditions: Escherichia coli, M49
Description: (§2) The biological activity of representative compounds according to the invention against various bacterial strains was investigated. In a typical study, overnight grown bacterial cultures were diluted appropriately and inoculated on the agar media containing doubling dilutions of the test compounds. Observations for growth or no growth was performed after 16-20 hours of incubation at 35±2° C. in the ambient air. The overall procedure was performed as per Clinical and Laboratory Standards Institute (CLSI) recommendations, (Clinical and Laboratory Standards Institute (CLSI), Performance Standards for Antimicrobial Susceptibility Testing, 20th Informational Supplement, M07-A9, Volume 32, No. 2, 2012). Molten Mueller Hinton Agar (BD, USA) containing serial dilutions of each antibacterial agent were poured on to the plates and allowed to solidify. Appropriate suspensions from the freshly grown cultures were prepared in normal saline so that about 10^4 CFU/spot of the organism was delivered on to the drug containing agar plates using automated multipoint inoculator (Mast, UK). The plates were incubated in Biochemical oxygen demand (BOD) incubator at 37° C. for 18 hours and then examined for growth.
(§3) Table 3 details the antibacterial activity of representative compound of Formula (I), (2S,5R)-sulfuric acid mono-{2-[N′-(2-(S)-pyrrolidin-2-yl-acetyl)-hydrazinocarbonyl]-7-oxo-1,6-diaza-bicyclo[3.2.1]oct-6-yl}ester (Compound of Example 1), against various Multi Drug Resistant (MDR) Gram-negative bacterial strains. The activities are expressed as Minimum Inhibitory Concentrations (MICs) (mcg/ml).

C. frundaii 58 MP = test: as above; format: cell-based
Description: as §2, §3

E. coli M 50 = test: as above; format: cell-based; conditions: Escherichia coli, M50
Description: as §2, §3

K. pneumoniae S 21 = test: as above; format: cell-based; conditions: Klebsiella pneumoniae, S21
Description: as §2, §3

E. coli NCTC 13351 = test: as above; format: cell-based; conditions: Escherichia coli, NCTC13351
Description: as §2, §3

P. aeruginosa ATCC 27853 = test: as above; format: cell-based; conditions: Pseudomonas aeruginosa, ATCC27853
Description: as §2, §3

E. coli NCTC 13352 = test: as above; format: cell-based; conditions: Escherichia coli, NCTC13352
Description: as §2, §3

E. cloacae M 20 = test: as above; format: cell-based; conditions: Enterobacter cloacae, M20
Description: as §2, §3

P. aeruginosa 2779 = test: as above; format: cell-based; conditions: Pseudomonas aeruginosa
Description: as §2, §3

E. coli 7 MP = test: as above; format: cell-based; conditions: Escherichia coli
Description: as §2, §3

P. aeruginosa PAO1 = test: as above; format: cell-based; conditions: Pseudomonas aeruginosa
Description: as §2, §3

K. pneumoniae H 525 = test: as above; format: cell-based; conditions: Klebsiella pneumoniae, H525
Description: as §2, §3

P. aeruginosa R 20 = test: as above; format: cell-based; conditions: Pseudomonas aeruginosa, R20
Description: as §2, §3

[2] = target: Class D beta-lactamase OXA 26 (A. baumannii NCTC 13303) (Acinetobacter baumannii, UniProt Q9F0V2); test: Beta-lactamase enzyme inhibition (Nitrocefin, crude enzyme); format: biochemical; conditions: A. baumannii NCTC 13303 (OXA 26), read-out: Beta-lactamase enzyme inhibition IC50
Description: as §1

[3] = target: T2, Class C beta-lactamase P99 (E. cloacae J137) (Enterobacter cloacae, UniProt P05364); test: as above; format: biochemical
T2 construct: preincubated mixture of crude enzyme and the compounds; endogenous in cells; host or cells: E. cloacae J137
Description: as §1

[4] = test system: K. pneumoniae H521 (KPC, SHV, TEM); test: Antibacterial activity (MIC), agar dilution per CLSI; format: cell-based; conditions: Klebsiella pneumoniae; K. pneumoniae H521 (KPC, SHV, TEM); read-out: MIC
Description: as §2
(§4) The strains selected for study included E. coli NCTC 13353 producing CTX-M15 and OXA-1 beta-lactamase enzymes; K. pneumoniae H521 producing KPC, SHV, TEM beta-lactamase enzymes; and K. pneumoniae S48 producing NDM, SHV, TEM beta-lactamase enzymes. The activities are expressed as Minimum Inhibitory Concentrations (MICs) (mcg/ml).
(§5) The activities are expressed as Minimum Inhibitory Concentrations (MICs) (mcg/ml).

[5] = test system: E. coli NCTC 13353 (CTX-M15, OXA-1); test: as above; format: cell-based; conditions: Escherichia coli, NCTC13353; E. coli NCTC 13353 (CTX-M15, OXA-1); read-out: MIC
Description: as §2, §4, §5

T2 sequence (P05364 21-381): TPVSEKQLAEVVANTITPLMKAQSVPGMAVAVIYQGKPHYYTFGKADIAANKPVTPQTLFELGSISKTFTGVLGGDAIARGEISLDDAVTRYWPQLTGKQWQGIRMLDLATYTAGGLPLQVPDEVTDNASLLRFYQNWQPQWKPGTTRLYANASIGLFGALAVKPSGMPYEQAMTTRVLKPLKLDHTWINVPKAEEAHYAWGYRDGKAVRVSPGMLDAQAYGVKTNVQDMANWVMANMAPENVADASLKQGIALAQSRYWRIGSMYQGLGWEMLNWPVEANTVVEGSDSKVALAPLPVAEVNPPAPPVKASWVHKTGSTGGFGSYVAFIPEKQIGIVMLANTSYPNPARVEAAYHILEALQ
Chain of Class D beta-lactamase OXA 26 (A. baumannii NCTC 13303) (Q9F0V2 entry or part of it): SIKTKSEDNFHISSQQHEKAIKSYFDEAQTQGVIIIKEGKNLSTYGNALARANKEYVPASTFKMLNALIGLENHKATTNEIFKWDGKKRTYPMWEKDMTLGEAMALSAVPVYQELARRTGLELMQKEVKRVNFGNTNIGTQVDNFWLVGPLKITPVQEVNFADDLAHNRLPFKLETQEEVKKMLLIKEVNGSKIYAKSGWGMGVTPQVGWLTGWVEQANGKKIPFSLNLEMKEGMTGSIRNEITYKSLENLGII

In the case of `NC(=O)[C@@H]1CC[C@@H]2CN1C(=O)N2OS(=O)(=O)O` [Avibactam, avibactam, reference compound], the IC50 [1] is reported as 0.098 µM and 0.01 µM, the MIC (E. coli M 49) is reported as 16 mg/L (≈ 60.3 µM) and the MIC (C. frundaii 58 MP) is reported as over 64 mg/L. For the same molecule, the MIC (E. coli M 50) was over 64 mg/L, the MIC (K. pneumoniae S 21) was 16 mg/L (≈ 60.3 µM) and the MIC (E. coli NCTC 13351) was over 64 mg/L. For the same molecule, the MIC (P. aeruginosa ATCC 27853) was over 64 mg/L, the MIC (E. coli NCTC 13352) was over 64 mg/L and the MIC (E. cloacae M 20) was over 64 mg/L. The MIC (P. aeruginosa 2779) was over 64 mg/L, the MIC (E. coli 7 MP) was over 64 mg/L and the MIC (P. aeruginosa PAO1) was over 64 mg/L. The MIC (K. pneumoniae H 525) was 8 mg/L (≈ 30.2 µM), the MIC (P. aeruginosa R 20) was over 64 mg/L and the IC50 [2] was 10.1 µM. For the same molecule, the IC50 [3] was 0.079 µM, the MIC [4] was 16 mg/L (≈ 60.3 µM) and the MIC [5] was 16 mg/L (≈ 60.3 µM).

Source: patent US9657022B2, “7-OXO-1,6-diazabicyclo[3.2.1]octane derivatives and their use as antibacterial agents” (WOCKHARDT LIMITED, priority 2014, dated 2017)
